| SMILES | CH4 permeability [Barrer] | CO2 permeability [Barrer] | N2 permeability [Barrer] | O2 permeability [Barrer] | H2 permeability [Barrer] |
| --- | --- | --- | --- | --- | --- |
| *c1ccc(Oc2ccc(Oc3ccc(Oc4ccc(N5C(=O)c6ccc(-c7ccc8c(c7)C(=O)N(*)C8=O)cc6C5=O)cc4)cc3)cc2)cc1 (repeat unit) | 0.0305 | 1.25 | 0.0392 | 0.256 |  |
| */C(C)=C(/*)[Si](C)(C)CCC (repeat unit) | 44 | 230 | 21 | 70 | 250 |
| *c1ccc(Cc2ccc(N3C(=O)c4ccc(-c5ccc6c(c5)C(=O)N(*)C6=O)cc4C3=O)cc2)cc1 (repeat unit) | 0.0532 | 1.58 | 0.0221 | 0.188 | 6.35 |
| *c1ccc(C(c2ccc(-c3nnc(*)n3-c3ccc(O)cc3)cc2)(C(F)(F)F)C(F)(F)F)cc1 (repeat unit) | 6.69 | 268 | 10.2 |  |  |
| */C(C)=C(/*)[Si](C)(C)C (repeat unit) | 15000 | 28600 | 6600 | 9000 | 15000 |
| *Oc1ccc(C(c2ccc(Oc3ccc(C(=O)c4ccc(C(C)(C)c5ccc(C(=O)c6ccc(*)cc6)cc5)cc4)cc3)cc2)(C(F)(F)F)C(F)(F)F)cc1 (repeat unit) | 0.345 | 8 | 0.44 | 2.4 | 22.8 |
| *c1ccc2c3c(ccc2c1)OC1Oc2ccc4cc(N5C(=O)c6ccc(C(c7ccc8c(c7)C(=O)N(*)C8=O)(C(F)(F)F)C(F)(F)F)cc6C5=O)ccc4c2C31 (repeat unit) | 0.7 | 29.9 | 1.2 | 7.2 | 73 |
| *CC(*)OC1CC2CC1C1CCCC21 (repeat unit) |  | 12.6 | 1.2 | 3.06 |  |
| *c1ccc(Cc2ccc(N3C(=O)c4ccc(C(=O)Oc5ccc(C(c6ccc(OC(=O)c7ccc8c(c7)C(=O)N(*)C8=O)cc6)(C(F)(F)F)C(F)(F)F)cc5)cc4C3=O)cc2)cc1 (repeat unit) |  |  | 0.164 | 0.917 | 11.8 |
| *c1ccc(Oc2ccc(C(c3ccc(Oc4ccc(-n5c(=O)c6cc7c(=O)n(*)c(=O)c7cc6c5=O)cc4)cc3)(C(F)(F)F)C(F)(F)F)cc2)cc1 (repeat unit) | 0.499 | 14.7 | 0.8 | 3.94 | 29.1 |
| *Oc1ccc(C(C)(c2ccccc2)c2ccc(OC(=O)c3cccc(C(*)=O)c3)cc2)cc1 (repeat unit) | 0.59 | 13.1 | 0.54 | 2.58 |  |
| *c1ccc(*)n1C (repeat unit) | 0.22 | 6.9 | 0.33 | 2.04 |  |
| *C(=C(*)c1ccc2c(c1)Cc1ccccc1-2)c1ccccc1 (repeat unit) | 2400 | 8500 | 1300 | 2150 | 3650 |
| *Oc1cccc2c(Oc3ccc(S(=O)(=O)c4ccc(*)cc4)cc3)cccc12 (repeat unit) | 0.036 | 1.6 | 0.057 | 0.42 |  |
| *CC(*)OC1CC2CCC1C2 (repeat unit) |  | 25 | 0.96 | 3.55 |  |
| *c1ccc(C(c2ccc(N3C(=O)c4ccc(-c5ccc6c(c5)C(=O)N(*)C6=O)cc4C3=O)cc2)(C(F)(F)F)C(F)(F)F)cc1 (repeat unit) | 0.611 | 22.1 | 0.979 | 5.22 |  |
| */N=C1/c2ccc(C(c3ccc4c(c3)-c3nc5cc(Oc6ccc(*)c(*)c6)ccc5n3C4=O)(C(F)(F)F)C(F)(F)F)cc2C(=O)N1* (repeat unit) | 0.54 | 27.6 | 1.2 | 7.9 |  |
| *c1ccc(Oc2ccc(-n3c(=O)c4cc5c(=O)n(*)c(=O)c5cc4c3=O)cc2)cc1 (repeat unit) | 0.0682 | 2.73 | 0.0995 | 0.591 | 7.52 |
| *Oc1ccc(S(=O)(=O)c2ccc(Oc3ccc(C4(c5ccc(*)cc5)c5ccccc5-c5ccccc54)cc3)cc2)cc1 (repeat unit) | 0.531 | 13.8 | 0.484 | 2.76 |  |
| *Oc1ccc(S(=O)(=O)c2ccc(Oc3ccc(-c4ccc(*)cc4)cc3)cc2)cc1 (repeat unit) | 0.255 | 5.6 | 0.236 | 1.3 |  |
| *c1ccc(C(C)(C)c2ccc(N3C(=O)c4ccc(Oc5ccc(Oc6ccc7c(c6)C(=O)N(*)C7=O)cc5)cc4C3=O)cc2)cc1 (repeat unit) | 0.0692 | 2.65 | 0.104 | 0.586 | 9.33 |
| *O[Si](C)(C)c1cccc([Si](*)(C)C)c1 (repeat unit) | 106 | 518 |  | 74 |  |
| *C(C)=C(*)CCCCC (repeat unit) | 51 | 200 | 21 | 57 | 150 |
| *Oc1ccc(Oc2cccc(*)c2C#N)c(-c2cccc(C(F)(F)F)c2)c1 (repeat unit) | 0.09 | 3.7 | 0.15 | 0.87 | 9.3 |
| *c1cc(C(=O)OCCC(F)(F)C(F)(F)C(F)(F)C(F)(F)C(F)(F)C(F)(F)F)cc(N2C(=O)c3ccc(C(=O)c4ccc5c(c4)C(=O)N(*)C5=O)cc3C2=O)c1 (repeat unit) | 4.19 | 75 | 4.49 | 19.7 |  |

Continued, values first:

| CH4 permeability [Barrer] | CO2 permeability [Barrer] | N2 permeability [Barrer] | O2 permeability [Barrer] | H2 permeability [Barrer] | SMILES |
| --- | --- | --- | --- | --- | --- |
| 0.161 | 3.31 | 0.104 | 0.636 | 9.83 | *c1ccc(Oc2ccc(N3C(=O)c4ccc([Si](C)(C)c5ccc6c(c5)C(=O)N(*)C6=O)cc4C3=O)cc2)cc1 (repeat unit) |
|  |  | 5 | 17 | 72 | *C(C(=O)OC1CCCCC1)C(*)C(=O)OC(C)(C)C (repeat unit) |
| 0.95 | 21 | 1.06 | 5.6 |  | *Oc1c(C)cc(C(C)(C)c2cc(C)c(Oc3ccc(S(=O)(=O)c4ccc(*)cc4)cc3)c(C)c2)cc1C (repeat unit) |
| 0.11 | 1.95 | 0.11 | 0.7 |  | *Oc1ccc(S(=O)(=O)c2ccc(Oc3ccc(C(C)(C)c4ccc(*)cc4)cc3CN)cc2)cc1 (repeat unit) |
| 1100 | 3800 | 390 | 830 | 1500 | *C(=C(*)c1ccc([Si](C)(C)C)cc1)c1ccc(O[Si](C)(C)C(C)(C)C)cc1 (repeat unit) |
| 4.55 | 123 | 6.1 |  |  | *c1ccc(C(c2ccc(-c3nnc(*)o3)cc2)(C(F)(F)F)C(F)(F)F)cc1 (repeat unit) |
|  |  | 9 | 21 | 133 | *C(C(=O)OC(C)C)C(*)C(=O)OC(C)(C)C (repeat unit) |
| 1.2 | 39 | 1.2 | 6.5 | 55 | *c1c(C)cc(-c2cc(C)c(N3C(=O)c4ccc(Oc5cc(C)c(Oc6ccc7c(c6)C(=O)N(*)C7=O)c(C)c5C)cc4C3=O)c(C)c2)cc1C (repeat unit) |
| 2.79 | 71.5 | 4.75 | 20.9 | 126 | *Oc1c(C)cc(C(c2cc(C)c(OC(*)=O)c(C)c2)(C(F)(F)F)C(F)(F)F)cc1C (repeat unit) |
| 8.5 | 67 | 3.7 | 16 | 73 | */C=C/C1CC(*)CC1[Si](C)(C)C[Si](C)(C)C (repeat unit) |
| 0.928 | 19.4 | 0.699 | 4.85 | 30.6 | *Oc1cc(C)c(C2(c3cc(C(C)C)c(Oc4ccc(S(=O)(=O)c5ccc(*)cc5)cc4)cc3C)OC(=O)c3ccccc32)cc1C(C)C (repeat unit) |
| 23.9 | 329 | 22 | 83.4 |  | *c1c(C)c2c(c(N3C(=O)c4ccc(-c5ccc6c(c5)C(=O)N(*)C6=O)cc4C3=O)c1C)C(C)(C)CC2 (repeat unit) |
| 1100 | 2900 | 430 | 810 | 1600 | *C(=C(*)c1cccc(O[Si](C)(C)C(C)(C)C)c1)c1ccc([Si](C)(C)C)cc1 (repeat unit) |
| 390 | 3940 | 257 | 722 | 1920 | *c1c(C)c(C)c(N2C(=O)c3cc4c(cc3C2=O)C2(CC(C)(C)c3cc5c(cc32)C(=O)N(*)C5=O)CC4(C)C)c(C)c1C (repeat unit) |
| 0.76 | 11.4 | 1.27 | 5.04 |  | *Oc1c(C)cc(*)c(C(=O)c2ccc([N+](=O)[O-])cc2)c1C (repeat unit) |
| 4.9 | 138 | 5.3 | 31.2 | 274 | *c1cc2c(cc1O)C1(CC2(C)C)CC(C)(C)c2cc(N3C(=O)C4C(C3=O)C3(Br)C(Br)=C(Br)C4(Br)C4C(=O)N(*)C(=O)C43)c(O)cc21 (repeat unit) |
| 0.27 | 6.5 | 0.26 | 1.4 | 11.3 | *OC(=O)Oc1ccc(C(=C(Cl)Cl)c2ccc(*)cc2)cc1 (repeat unit) |
|  | 26 | 1.5 | 6.5 |  | */C=C/c1ccc(*)cc1[Si](C)(C)C(C)(C)C (repeat unit) |

— a polymer gas permeability compilation
